The experiment deals with MCF-7 cells. The experiment in a line: 3H-thymidine incorporation cell growth assay, MCF-7. The format is cell-based, Human.
Setting [1] is: metal-transferrin without drug, read-out: IC50 of Drugs bound by a Glutaraldehyde Reaction to the Surface of Transferrin (M): No Drug.
[2] abbreviates: daunorubicin bound to metal-transferrin by glutaraldehyde, read-out: IC50 of Drugs bound by a Glutaraldehyde Reaction to the Surface of Transferrin (M): Daunorubicin.

Where two headings read alike, the source gives them in different places.

Experimental: Human cancer cell lines were obtained from the American Type Culture Collection (Rockville, Md.); the NCI/Adr-Res cell line came from the National Cancer Institute (Bethesda, Md.). The cancer cell lines were maintained in alpha-MEM supplemented with 10% fetal calf serum, 1 mM glutamine and 0.05 mg/mL gentamicin (Life Technologies, Inc., Frederick, Md.) in 5% CO2 at 37° C. Cells were removed from cell culture flask or plate by trypsin-EDTA (0.05% trypsin and 0.53 mM EDTA) digestion.
Cell growth was measured with a ^3[H]-thymidine incorporation assay. Cancer cells were plated into each well of a 96-well cell culture plate as noted in Table 2 (e.g., MCF-7 cells were plated at 3000 cells/well) and incubated overnight. Culture media was replaced with media containing increasing concentrations of transferrin based drugs, and the cells were incubated with these drugs for 3 days. Then, ^3[H]-thymidine (0.1 uCi/well) was added to each well for the last 16 hours of incubation. The cells were removed from the plate by trypsin-EDTA digestion and harvested onto a glass-fiber filter (Skatron basic96 Harvester, Shatron Inc., Sterling, Va.). The radioactivity incorporated into the cellular DNA was determined by liquid scintillation counting (LS 6500, Beckman Co., Fullerton, Calif.). Cell proliferation was quantitated by ^3[H]-thymidine incorporation and expressed as a percentage of the untreated control. The experiments were repeated a minimum of three times independently.

On to “Ga-tf: Human transferrin loaded with gallium, no drug”, for which the IC50 – broadly, the concentration at which inhibition is half-maximal – under setting [1] is 3.4e-06 M.
“In-tf Daunorubicin: Daunorubicin bound by a glutaraldehyde reaction to the surface of indium-transferrin”: the IC50 under setting [2] is 2.7e-08 M.
Regarding “Fe-tf Daunorubicin: Daunorubicin bound by a glutaraldehyde reaction to the surface of iron-transferrin”, the IC50 under setting [2] was 2.2e-07 M.
Still for that read-out and setting: the result for “Ga-tf Daunorubicin: Daunorubicin bound by a glutaraldehyde reaction to the surface of gallium-transferrin” reads 3.6e-07 M.
For the substance In-tf: Indium-transferrin, no drug, the IC50 under setting [1] is 2.7e-06 M.

For the origin of these results see patent US9333189B2, “Taxane- and taxoid-protein compositions” (ONCBIOMUNE, INC., priority 2010, dated 2016).
